Measurements taken from patent US12491227B2, “Crila® and EGCG compositions for treatment of fibroids” (Altin Biosciences Corporation, priority 2022, dated 2025).

Legend:
[1] = target: T1, Catechol-O-methyl transferase (COMT) (Homo sapiens, UniProt P21964); settings: cited from earlier work
T1 sequence (P21964 1-271): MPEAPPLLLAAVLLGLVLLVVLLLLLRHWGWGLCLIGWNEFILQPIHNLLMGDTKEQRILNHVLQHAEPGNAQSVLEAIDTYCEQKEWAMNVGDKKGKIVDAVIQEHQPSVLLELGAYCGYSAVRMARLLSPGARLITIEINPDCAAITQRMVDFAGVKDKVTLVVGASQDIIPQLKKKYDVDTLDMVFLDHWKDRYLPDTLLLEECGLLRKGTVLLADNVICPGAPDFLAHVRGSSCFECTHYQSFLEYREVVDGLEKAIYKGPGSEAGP

[2] = test system: Human uterine leiomyoma (HuLM) cells; test: MTT cell proliferation / viability assay in HuLM cells; assay type: cell-based; settings: EGCG alone
Experimental: Effect of Crila® or a Crila® composition (Table 1) and/or EGCG on the Uterine Fibroid Growth: In one study, we used Human Leiomyoma (HuLM) Cells in our initial evaluation of Crila® and/or EGCG treatment. Crila®, used alone or in combination with EGCG, were evaluated for their ability to inhibit the proliferation of HuLM cells in an experimental approach as described below. Similarly, the Crila® compositions are evaluated for their ability to inhibit the proliferation of HuLM cells in an experimental approach as described below. Crila® and/or EGCG were analyzed at the various concentrations and time points specified. […] Thereafter, the extract was sterile filtered through 0.22 μm PES filter and stored at room temperature until further use. EGCG was dissolved in DMSO to make a 100 mM stock solution or in dH2O to make 10 mM stock solution. Cell proliferation assay was performed by dimethylthiazolyl diphenyltetrazolium bromide (MTT) assay. Human uterine leiomyoma (HuLM) cells were cultured in DMEM/F12 containing 10% fetal bovine serum. […] Samples were measured (from the treated wells and control wells) after 1 to 2 days, 3 days, 5 days and 7 days. […] Relative cell viability was determined by using the MTT assay. […] Absorbance was measured in Varioskan Lux microplate reader (ThermoFisher) at 570 nm. […]

TGF-β3 = settings: human fibroid cells; cited from earlier work
BMP2 gene = settings: EGCG-treated human fibroid cells; cited from earlier work
fibroid tumor = settings: nude mouse model; cited from earlier work

## O=C(O[C@@H]1Cc2c(O)cc(O)cc2O[C@@H]1c1cc(O)c(O)c(O)c1)c1cc(O)c(O)c(O)c1 [EGCG, epigallocatechin gallate]
[1]
  COMT inhibitor effect: potent COMT inhibitor effect
[2]; after 5 days treatment
  concentration from which HuLM cells viability is effectively reduced: ≥ 50 µM
[2]; after 7 days treatment
  concentration from which HuLM cells viability is effectively reduced: ≥ 25 µM
TGF-β3
  TGF-β3 production: significantly decreased
BMP2 gene
  increase in the expression of the BMP2 gene versus untreated control: 14 fold
Fibroid tumor
  fibroid tumor formation in vivo: inhibiting fibroid tumor formation
